Source: ChEMBL document CHEMBL2029261 (Bioorg Med Chem Lett, 2012)
Activity calls are given as the source filed them. No cut-off for these calls is given here.

Legend:
Mus musculus [1] = species on record: Mus musculus; test: Binding affinity to amyloid beta plaque in mouse brain tissue by thioflavin staining-based fluorescence analysis
[2] = Binding affinity to amyloid beta (1 to 40) aggregates assessed as change in fluorescence intensity at 10 uM relative to control
[3] = Apparent binding affinity to amyloid beta (1 to 40) aggregates; conditions: read-out: Kd(app)
[4] = molecular target: Amyloid-beta precursor protein (Homo sapiens) (UniProt P05067); test: Binding affinity to unlabeled amyloid beta (1 to 42) expressed in human SH-SY5Y cells at 10 uM after 10 mins thioflavin staining-based by fluorescence microscopic analysis
Amyloid-beta precursor protein (Homo sapiens), sequence (P05067 whole entry): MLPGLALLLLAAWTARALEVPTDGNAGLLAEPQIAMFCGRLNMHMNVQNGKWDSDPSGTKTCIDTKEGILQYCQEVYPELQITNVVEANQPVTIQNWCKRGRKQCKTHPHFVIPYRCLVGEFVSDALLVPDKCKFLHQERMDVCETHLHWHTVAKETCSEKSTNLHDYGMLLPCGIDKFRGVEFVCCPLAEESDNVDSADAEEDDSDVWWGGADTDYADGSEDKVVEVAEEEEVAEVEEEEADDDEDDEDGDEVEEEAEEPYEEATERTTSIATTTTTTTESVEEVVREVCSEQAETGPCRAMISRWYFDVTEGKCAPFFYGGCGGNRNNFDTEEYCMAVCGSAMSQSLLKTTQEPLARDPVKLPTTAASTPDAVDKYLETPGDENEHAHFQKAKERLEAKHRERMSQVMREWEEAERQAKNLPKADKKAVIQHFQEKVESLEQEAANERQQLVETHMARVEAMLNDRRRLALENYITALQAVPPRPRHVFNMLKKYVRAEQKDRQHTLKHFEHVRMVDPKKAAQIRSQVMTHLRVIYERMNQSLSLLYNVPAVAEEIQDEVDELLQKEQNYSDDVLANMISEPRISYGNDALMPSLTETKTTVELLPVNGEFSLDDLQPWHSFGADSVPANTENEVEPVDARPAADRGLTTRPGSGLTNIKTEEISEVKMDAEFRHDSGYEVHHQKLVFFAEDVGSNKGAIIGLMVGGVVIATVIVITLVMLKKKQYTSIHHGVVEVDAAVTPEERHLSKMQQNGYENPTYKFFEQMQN

Mus musculus [5] = species on record: Mus musculus; test: Binding affinity to amyloid beta plaque in APP/PS1 transgenic mouse brain tissue by thioflavin staining-based fluorescence analysis

fold change (FC) [2]	Kd [3]	Compound	also measured
		Cc1ccc2c(c1)sc(-c1ccc(N(C)C)cc1)[n+]2C	Activity (Mus musculus [1]): inactive
4.53		COc1cccc(OC)c1/C=C/n1ncc(Cl)c(Cl)c1=O	
12.2	2.95 µM	Nc1ccc(/C=C/n2ncc(Cl)c(Cl)c2=O)cc1	
3.95		COc1cc(OC)c(OC)cc1/C=C/n1ncc(Cl)c(Cl)c1=O	
	4.14 µM	COc1cc(/C=C/n2ncc(Cl)c(Cl)c2=O)cc(OC)c1OC	FC [2]: 26.1
2.07		COC(=O)c1ccc(/C=C/n2ncc(Cl)c(Cl)c2=O)cc1	
26.8	4.24 µM	COc1ccc(/C=C/n2ncc(Cl)c(Cl)c2=O)c(OC)c1OC	
11.1	3.48 µM	COc1cccc(/C=C/n2ncc(Cl)c(Cl)c2=O)c1	
4.12		O=c1c(Cl)c(Cl)cnn1/C=C/c1ccccc1[N+](=O)[O-]	
2.94		N#Cc1ccc(/C=C/n2ncc(Cl)c(Cl)c2=O)cc1	
5.26		O=c1c(Cl)c(Cl)cnn1/C=C/c1ccc(I)cc1	
5.93		O=c1c(Cl)c(Cl)cnn1/C=C/c1ccc(F)cc1	
2.04		O=c1c(Cl)c(Cl)cnn1/C=C/c1ccc(/C=C\c2ccccc2)cc1	
19.8	2.57 µM	COc1ccc(/C=C/n2ncc(Cl)c(Cl)c2=O)cc1	
2.12		O=c1c(Cl)c(Cl)cnn1/C=C/c1cccc([N+](=O)[O-])c1	
11.7	17.6 µM	COc1cc(OC)c(/C=C/n2ncc(Cl)c(Cl)c2=O)c(OC)c1	
2.12		O=c1c(Cl)c(Cl)cnn1/C=C/c1ccc(Br)cc1	
3.42		COc1ccc(OC)c(/C=C/n2ncc(Cl)c(Cl)c2=O)c1	
3.52		COc1ccc(/C=C/n2ncc(Cl)c(Cl)c2=O)cc1OC	
2.81		Cc1ccc(/C=C/n2ncc(Cl)c(Cl)c2=O)cc1	
11.5	5.03 µM	COc1ccc(/C=C/n2ncc(Cl)c(Cl)c2=O)c(OC)c1	
5.37		COc1cc(/C=C/n2ncc(Cl)c(Cl)c2=O)cc(OC)c1	
8.24		COc1ccccc1/C=C/n1ncc(Cl)c(Cl)c1=O	
15.3	8.52 µM	COc1cccc(/C=C/n2ncc(Cl)c(Cl)c2=O)c1OC	
3.03		O=c1c(Cl)c(Cl)cnn1/C=C/c1ccc(Cl)cc1	
4.72		O=c1c(Cl)c(Cl)cnn1/C=C/c1ccccc1	
2.24		O=c1c(Cl)c(Cl)cnn1/C=C/c1ccc([N+](=O)[O-])cc1	
40.8	1.84 µM	CN(C)c1ccc(/C=C/n2ncc(Cl)c(Cl)c2=O)cc1	Activity [4]: Active; Activity (Mus musculus [1]): inactive; Activity (Mus musculus [5]): Active
1.92		O=c1c(Cl)c(Cl)cnn1/C=C/c1ccc(-c2ccccc2)cc1	
